Laboratory results published in paper PMC6001459 (The Febs Journal, 2018).

Target: T1, PpBBE1 (Physcomitrium patens, UniProt A0A2K1JP57, D396N)
T1 construct: gene PHYPA_015719; full-length precursor 501 residues; native signal peptide (predicted 1-30) removed; C-terminal octahistidine tag; secreted from Komagataella phaffii KM71H (pPICZalpha, PDI coexpressed); ca. 54 kDa; monomer; bicovalent FAD
Assay: X-ray crystal structure, […] A
Assay type: binding
Conditions: covalent; bicovalent via 8alpha to H111 and C6 to C172

T1 sequence (A0A2K1JP57 entry or part of it D396N): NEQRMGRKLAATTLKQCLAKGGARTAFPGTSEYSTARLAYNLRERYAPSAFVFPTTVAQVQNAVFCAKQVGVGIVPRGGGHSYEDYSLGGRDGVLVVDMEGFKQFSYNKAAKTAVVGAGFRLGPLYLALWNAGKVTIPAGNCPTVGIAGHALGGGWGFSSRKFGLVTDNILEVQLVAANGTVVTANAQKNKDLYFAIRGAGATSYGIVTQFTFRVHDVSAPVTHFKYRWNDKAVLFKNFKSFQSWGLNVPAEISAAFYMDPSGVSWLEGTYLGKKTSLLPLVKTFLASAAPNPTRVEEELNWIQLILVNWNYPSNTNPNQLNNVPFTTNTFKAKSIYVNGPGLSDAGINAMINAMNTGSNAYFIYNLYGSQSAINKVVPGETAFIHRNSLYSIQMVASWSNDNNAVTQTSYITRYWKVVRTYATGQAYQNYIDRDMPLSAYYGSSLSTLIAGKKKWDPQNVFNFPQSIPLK

For Cc1cc2nc3c(=O)[nH]c(=O)nc-3n(C[C@H](O)[C@H](O)[C@H](O)COP(=O)(O)OP(=O)(O)OC[C@H]3O[C@@H](n4cnc5c(N)ncnc54)[C@H](O)[C@@H]3O)c2cc1C [FAD], the “X-ray crystal structure, 2.6 A” value was “confirmed the bicovalent linkage of the flavin cofactor”.
